Assay results from patent US20220400680A1, “USE OF ACYLCYANAMIDES OR SALTS THEREOF FOR REGULATING PLANT GROWTH” (Alzchem Trostberg GmbH, priority 2019, published 2022).

Assays:
[1] = test system: Table apple, type Boiken apple (C1); test: Greenhouse test, cut apple branches C1 dipped in test solution, bud development stage; type: in vivo, Malus domestica; design: key to Bud development stage, apple branches C1: Stage 0: Buds unchanged; Stage 1: Buds slightly swollen, first green tips visible; Stage 2: strongly swollen, green buds; Stage 3: Buds before breaking open, leaf or flower root already visible; Stage 4: Flower buds fully developed, but still closed, white petals already visible. In the case of the grapevine, stage 4 was the unfolding of the first leaves; Stage 5: Flowers fully open or, in the case of grapevine, unfolding of the flower roots (“Gescheine”) on the fully leafed sprouts
Procedure: Greenhouse tests were conducted using cut fruit tree branches placed in water jars and maintained under controlled conditions with temperature regulation at approximately 22° C. and natural lighting. C1: Table Apple, Type Boiken Apple Table apple: Malus domestica type Boiken first described in 1828 in Bremen after Deichvogt Boiken. Apple type for rough locations and for almost every soil suitable scattered fruit type, whereby heavy soils and not too warm locations are required. Tree growth initially strong, later medium. Older crowns become broadly spherical and are loosely branched. Flowering starting medium-late and long lasting, petals large with little pink. Yield starting late (October) and irregular; with long shelf life and pressure resistance. […] The test solutions were prepared directly, i.e. without intermediate preparation of a concentrate. For each of the test substances A-1 to A-13, an aqueous solution of 0.15 mol of the test substance and 0.15 g BreakThru® OE-446 was prepared and filled up to a total of 500 g with water. Of bis-cyanamides A-14 and A-15, 0.075 mol each was filled up to 500 g in an analogous manner. These test solutions (in combination with the above 4 species/types Cx) were given the test numbers Cx-A1 to Cx-A15. […] This was done with the following evaluation scale: • Stage 0: […] Flower buds fully developed, but still closed, white petals already visible. […] Flowers fully open or, in the case of grapevine, unfolding of the flower roots (“[…]”) on the fully leafed sprouts.

[2] = test system: Table apple, type Zabergäu-Renette (C2); test: Greenhouse test, cut apple branches C2 dipped in test solution, bud development stage; type: in vivo, Malus domestica; design: key to Bud development stage, apple branches C2: Stage 0: Buds unchanged; Stage 1: Buds slightly swollen, first green tips visible; Stage 2: strongly swollen, green buds; Stage 3: Buds before breaking open, leaf or flower root already visible; Stage 4: Flower buds fully developed, but still closed, white petals already visible. In the case of the grapevine, stage 4 was the unfolding of the first leaves; Stage 5: Flowers fully open or, in the case of grapevine, unfolding of the flower roots (“Gescheine”) on the fully leafed sprouts
Procedure: Greenhouse tests were conducted using cut fruit tree branches placed in water jars and maintained under controlled conditions with temperature regulation at approximately 22° C. and natural lighting. C2: Table Apple, Type […] Table apple: Malus domestica type […] first developed in 1885 as a chance seedling in Hausen a.d. Zaber/Baden-Württemberg and initially grown as 'Hausener Graue […]'. No defined storage type; requires heavy soils (loam). Tree growth initially strong with oblique upright leading branches, later medium with flat branches. Crown broad and flat-spherical with flat fruiting wood. Leaves large, broad oval and with clearly separated tip. Triploid type with late and long-lasting flowering. Yield starting early, medium high and somewhat alternate. […] The test solutions were prepared directly, i.e. without intermediate preparation of a concentrate. For each of the test substances A-1 to A-13, an aqueous solution of 0.15 mol of the test substance and 0.15 g BreakThru® OE-446 was prepared and filled up to a total of 500 g with water. Of bis-cyanamides A-14 and A-15, 0.075 mol each was filled up to 500 g in an analogous manner. These test solutions (in combination with the above 4 species/types Cx) were given the test numbers Cx-A1 to Cx-A15. […] This was done with the following evaluation scale: • Stage 0: […] Flower buds fully developed, but still closed, white petals already visible. […] Flowers fully open or, in the case of grapevine, unfolding of the flower roots (“[…]”) on the fully leafed sprouts.

[3] = test system: Table cherry, type Burlat (C3); test: Greenhouse test, cut cherry branches C3 dipped in test solution, bud development stage; type: in vivo, Prunus avium; design: key to Bud development stage, cherry branches C3: Stage 0: Buds unchanged; Stage 1: Buds slightly swollen, first green tips visible; Stage 2: strongly swollen, green buds; Stage 3: Buds before breaking open, leaf or flower root already visible; Stage 4: Flower buds fully developed, but still closed, white petals already visible. In the case of the grapevine, stage 4 was the unfolding of the first leaves; Stage 5: Flowers fully open or, in the case of grapevine, unfolding of the flower roots (“Gescheine”) on the fully leafed sprouts
Procedure: Greenhouse tests were conducted using cut fruit tree branches placed in water jars and maintained under controlled conditions with temperature regulation at approximately 22° C. and natural lighting. C3: Table Cherry, Type Burlat Table cherry: Prunus avium type Bigarreau Burlat or […] is a strong-growing somewhat sparse growing sweet cherry tree with horizontal side sprouts. The type has been known since 1930 and is one of the most important types in commercial cultivation. […] Medium but regular yields identify the type as a secondary type for early and dry areas. […] The test solutions were prepared directly, i.e. without intermediate preparation of a concentrate. For each of the test substances A-1 to A-13, an aqueous solution of 0.15 mol of the test substance and 0.15 g BreakThru® OE-446 was prepared and filled up to a total of 500 g with water. Of bis-cyanamides A-14 and A-15, 0.075 mol each was filled up to 500 g in an analogous manner. These test solutions (in combination with the above 4 species/types Cx) were given the test numbers Cx-A1 to Cx-A15. […] This was done with the following evaluation scale: • Stage 0: […] Flower buds fully developed, but still closed, white petals already visible. […] Flowers fully open or, in the case of grapevine, unfolding of the flower roots (“[…]”) on the fully leafed sprouts.

[4] = test system: Grape, type Pinot Noir (C4); test: Greenhouse test, cut wine sprouts C4 dipped in test solution, bud development stage; type: in vivo, Vitis vinifera subsp. vinifera; design: key to Bud development stage, wine sprouts C4: Stage 0: Buds unchanged; Stage 1: Buds slightly swollen, first green tips visible; Stage 2: strongly swollen, green buds; Stage 3: Buds before breaking open, leaf or flower root already visible; Stage 4: Flower buds fully developed, but still closed, white petals already visible. In the case of the grapevine, stage 4 was the unfolding of the first leaves; Stage 5: Flowers fully open or, in the case of grapevine, unfolding of the flower roots (“Gescheine”) on the fully leafed sprouts; settings: for Dormancy-breaking effect according to the definition, wine C4: stage 4 reached or exceeded after 36 days vs negative control
Procedure: Greenhouse tests were conducted using cut fruit tree branches placed in water jars and maintained under controlled conditions with temperature regulation at approximately 22° C. and natural lighting. C4: Grape, Type Pinot Noir Grape: Vitis vinifera subsp. vinifera type Pinot Noir is an important and high quality red wine type that has existed for possibly 2000 years. It is cultivated all over the world because the type produces high quality red wines and has sufficient winter frost resistance. The type requires early and good areas with deep, warm, medium-heavy and fertile soils with good water supply. Pinot Noir produces regular, medium-high to high yields. However, there are a large number of clones that differ in yield, berry size and looseness. […] The test solutions were prepared directly, i.e. without intermediate preparation of a concentrate. For each of the test substances A-1 to A-13, an aqueous solution of 0.15 mol of the test substance and 0.15 g BreakThru® OE-446 was prepared and filled up to a total of 500 g with water. Of bis-cyanamides A-14 and A-15, 0.075 mol each was filled up to 500 g in an analogous manner. These test solutions (in combination with the above 4 species/types Cx) were given the test numbers Cx-A1 to Cx-A15. […] This was done with the following evaluation scale: • Stage 0: […] Flower buds fully developed, but still closed, white petals already visible. […] Flowers fully open or, in the case of grapevine, unfolding of the flower roots (“[…]”) on the fully leafed sprouts.

[5] = T1 (14 d), 0.15 mol (A-14, A-15: 0.075 mol) per 500 g solution
[6] = stage 4 reached or exceeded after 27 days vs negative control
[7] = stage 4 reached or exceeded after 36 days vs negative control

SMILES | Bud development stage, apple branches C1 [1, 5] | Bud development stage, apple branches C1 ([1]; T2 (16 d)) | Bud development stage, apple branches C1 ([1]; T3 (21 d)) | Bud development stage, apple branches C1 ([1]; T4 (27 d)) | Bud development stage, apple branches C1 ([1]; T5 (36 d)) | Bud development stage, apple branches C1 ([1]; T6 (56 d)) | Bud development stage, apple branches C2 [2, 5] | Bud development stage, apple branches C2 ([2]; T2 (16 d)) | Bud development stage, apple branches C2 ([2]; T3 (21 d)) | Bud development stage, apple branches C2 ([2]; T4 (27 d)) | Bud development stage, apple branches C2 ([2]; T5 (36 d)) | Bud development stage, apple branches C2 ([2]; T6 (56 d)) | Bud development stage, cherry branches C3 [3, 5] | Bud development stage, cherry branches C3 ([3]; T2 (16 d)) | Bud development stage, cherry branches C3 ([3]; T3 (21 d)) | Bud development stage, cherry branches C3 ([3]; T4 (27 d)) | Bud development stage, cherry branches C3 ([3]; T5 (36 d)) | Bud development stage, cherry branches C3 ([3]; T6 (56 d)) | Bud development stage, wine sprouts C4 [4, 5] | Bud development stage, wine sprouts C4 ([4]; T2 (16 d)) | other results
N#CNC(=O)CCCCC(=O)NC#N.[Na].[Na] [Example A-15, Disodium-(5-(cyano-amidocarbonyl)-pentanoyl-cyanamide)] | 0 | 0 | 1 | 2 | 3 | 4 | 0 | 0 | 1 | 5 | 5 | 5 | 0 | 1 | 1 | 1 | 2 | 4 | 0 | 0 | Good to very good dormancy-breaking effect, apple C2 [2, 6]: good to very good dormancy-breaking effect; Dormancy-breaking effect according to the definition, apple C2 [2, 7]: dormancy-breaking effect; Bud development stage, wine sprouts C4 ([4]; T3 (21 d)): 0; Bud development stage, wine sprouts C4 ([4]; T4 (27 d)): 1; Bud development stage, wine sprouts C4 ([4]; T5 (36 d)): 4; Bud development stage, wine sprouts C4 ([4]; T6 (56 d)): 5; Dormancy-breaking effect according to the definition, wine C4 [4]: dormancy-breaking effect
CC(C)(C)C(=O)NC#N.[Na] [Example A-8, Sodium pivaloyl cyanamide] | 0 | 0 | 2 | 4 | 4 | 4 | 0 | 0 | 0 | 1 | 2 | 4 | 0 | 0 | 1 | 2 | 4 | 5 | 0 | 0 | Good to very good dormancy-breaking effect, apple C1 [1, 6]: good to very good dormancy-breaking effect; Dormancy-breaking effect according to the definition, apple C1 [1, 7]: dormancy-breaking effect; Bud development stage, wine sprouts C4 ([4]; T3 (21 d)): 0; Bud development stage, wine sprouts C4 ([4]; T4 (27 d)): 1; Bud development stage, wine sprouts C4 ([4]; T5 (36 d)): 4; Bud development stage, wine sprouts C4 ([4]; T6 (56 d)): 5; Dormancy-breaking effect according to the definition, wine C4 [4]: dormancy-breaking effect
